Patent US20180215769A1, “POLYCYCLIC-CARBAMOYLPYRIDONE COMPOUNDS AND THEIR PHARMACEUTICAL USE” (priority 2012, published 2018)
Read-outs that look alike come from different tables or passages of the source.

Legend:
Assay type in all cases: cell-based
[1] = test system: HIV-IIIb; assay: Antiviral assay in MT4 cells; details: Human immunodeficiency virus 1, IIIB, MT4, 120 h
Experimental: (§3) For the antiviral assay utilizing MT4 cells, 0.4 μL of 189× test concentration of 3-fold serially diluted compound in DMSO was added to 40 μL of cell growth medium (RPMI 1640, 10% FBS, 1% penicilline/Streptomycine, 1% L-Glutamine, 1% HEPES) in each well of 384-well assay plates (10 concentrations) in quidruplicate.
(§4) 1 mL aliquots of 2×10^6 MT4 cells are pre-infected for 1 and 3 hours respectively at 37° C. with 25 μL (MT4) or of either cell growth medium (mock-infected) or a fresh 1:250 dilution of an HIV-IIIb concentrated ABI stock (0.004 m.o.i. for MT4 cells). Infected and uninfected cells are diluted in cell growth medium and 35 μL of 2000 (for MT4) cells is added to each well of the assay plates.
(§5) Assay plates were then incubated in a 37° C. incubator. After 5 days of incubation, 25 μL of 2× concentrated CellTiter-Glo™ Reagent (catalog # G7573, Promega Biosciences, Inc., Madison, Wis.) was added to each well of the assay plate. Cell lysis was carried out by incubating at room temperature for 2-3 minutes, and then chemiluminescence was read using the Envision reader (PerkinElmer).

[2] = Cytotoxicity (CC50) in MT4 cells, CellTiter-Glo; details: human
Experimental: as §3, §4, §5

[3] = target: T1, human PXR (Homo sapiens, UniProt O75469); assay: Human PXR activation assay, luciferase reporter gene in DPX2 cells; details: 24 hr, relative to maximum fold induction by 10 or 20 uM rifampicin
T1 construct: expressed in transfected cells; host or cells: DPX2 (stably transformed tumor cell line)
T1 sequence (O75469 1-434): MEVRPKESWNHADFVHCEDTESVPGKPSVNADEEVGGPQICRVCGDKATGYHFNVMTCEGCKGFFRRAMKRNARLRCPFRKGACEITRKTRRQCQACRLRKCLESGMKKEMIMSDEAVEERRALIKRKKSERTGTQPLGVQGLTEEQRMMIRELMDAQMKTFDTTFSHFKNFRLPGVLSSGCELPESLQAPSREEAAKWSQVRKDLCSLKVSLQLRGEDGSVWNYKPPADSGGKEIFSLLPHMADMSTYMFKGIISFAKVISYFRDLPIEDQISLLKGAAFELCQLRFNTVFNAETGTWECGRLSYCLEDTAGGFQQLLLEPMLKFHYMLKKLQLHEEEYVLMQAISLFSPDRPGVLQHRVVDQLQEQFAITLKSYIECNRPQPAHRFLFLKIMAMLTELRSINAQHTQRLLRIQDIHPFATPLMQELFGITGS
Experimental: (§1) Luciferase Reporter Gene Assay.
(§2) A stably transformed tumor cell line (DPX2) plated on 96-well microtiter plates. DPX2 cells harbor the human PXR gene (NR1I2) and a luciferase reporter gene linked to two promoters identified in the human CYP3A4 gene, namely XREM and PXRE. The cells are treated with six concentrations of compounds (0.15˜50 µM) and incubated for 24 hr. The number of viable cells will be determined and the reporter gene activity is assessed. Positive control: Rifampicin at 6 concentrations (0.1˜20 µM). % Emax relative to the maximum fold induction by 10 or 20 µM RIF is calculated for test compounds according to the following equation which adjusts for the DMSO background: % Emax=(Fold induction−1)/(Maximum fold induction by RIF−1)×100%.

[4] = target: T2, human PXR (NR1I2) (Homo sapiens, UniProt O75469); assay: as above; details: human, relative to maximum fold induction by 10 or 20 uM rifampicin
T2 construct: expressed in transfected cells; host or cells: DPX2 (stably transformed tumor cell line)
T2 sequence (O75469 1-434): T1 sequence (O75469 1-434)
Experimental: as §1, §2

[5] = MT-4 cells infected with HIV-IIIb, 5 days incubation, read-out: EC50

Structure (SMILES) | EC50 [1, 5] [nM] | CC50 at 5 days [2] [nM] | % Emax [3] [%] | further results
C[C@@H](NC(=O)c1cn2c(c(O)c1=O)C(=O)N1[C@H]3CC[C@H](C3)O[C@@H]1C2)c1ccc(F)cc1F [Compound 12] | 5.4 | 3230 | – | –
O=C(NCc1ccc(F)c(C(F)(F)F)c1)c1cn2c(c(O)c1=O)C(=O)N1[C@@H]3CC[C@@H](C3)O[C@H]1C2 [Compound 25] | 17.9 | 7070 | – | –
O=C(NC1(c2ccc(F)cc2F)CC1)c1cn2c(c(O)c1=O)C(=O)N1C(C2)O[C@H]2CCC[C@@H]1C2 (stereo partly drawn) [Compound 28] | – | – | 6.1 | –
C[C@H]1CO[C@@H]2Cn3cc(C(=O)NC4(c5ccc(F)cc5F)CC4)c(=O)c(O)c3C(=O)N12 [Compound 37, (3S,11aR)—N-(1-(2,4-difluorophenyl)cyclopropyl)-6-hydroxy-3-methyl-5,7-dioxo-2,3,5,7,11,11a-hexahydrooxazolo[3,2-a]pyrido[1,2-d]pyrazine-8-carboxamide] | – | – | 1.5 | –
O=C(NC1(c2ccc(F)cc2F)CC1)c1cn2c(c(O)c1=O)C(=O)N1C(C2)O[C@H]2CC[C@@H]1C2 (stereo partly drawn) [Compound 27] | 4 | – | – | –
O=C(NC1(c2ccc(F)cc2F)CCCCC1)c1cn2c(c(O)c1=O)C(=O)N1C(C2)O[C@H]2CC[C@@H]1C2 (stereo partly drawn) [Compound 34] | – | – | – | EC50 [1]: 456 nM
O=C(NCc1ccc(F)cc1F)c1cn2c(c(O)c1=O)C(=O)N1C(C2)O[C@@H]2CCC[C@H]1C2 (stereo partly drawn) [Compound 8] | – | – | 6.6 | –
O=C(NC1(c2ccc(F)cc2F)CC1)c1cn2c(c(O)c1=O)C(=O)N1C(C2)O[C@@H]2CCC[C@H]1C2 (stereo partly drawn) [Compound 29] | – | – | 3.2 | –
O=C(NCc1ccc(F)cc1F)c1cn2c(c(O)c1=O)C(=O)N1C(C2)O[C@H]2CCC[C@@H]1C2 (stereo partly drawn) [Compound 7] | – | – | 6.5 | –
O=C(NCc1ccc(F)cc1F)c1cn2c(c(O)c1=O)C(=O)N1C(C2)[N@]2CCC[C@H]1C2 (stereo partly drawn) [Compound 19] | – | – | 1.5 | –
C[C@@H](NC(=O)c1cn2c(c(O)c1=O)C(=O)N1[C@@H]3CC[C@@H](C3)O[C@H]1C2)c1ccc(F)cc1F [Compound 11] | 4.4 | – | – | –
O=C(NCc1ccc(Cl)c(F)c1)c1cn2c(c(O)c1=O)C(=O)N1[C@@H]3CC[C@@H](C3)O[C@H]1C2 [Compound 26] | 8 | 11500 | – | –
O=C(NCc1ccc(F)cc1F)c1cn2c(c(O)c1=O)C(=O)N1C(C2)[N@@]2CC[C@@H]1C2 (stereo partly drawn) [Compound 4, (1 S,4R)—N-(2,4-difluorobenzyl)-7-hydroxy-6,8-dioxo-3,4,6,8,12,12a-hexahydro-2H-1,4-methanopyrido[1′,2′:4,5]pyrazino[1,2-a]pyrimidine-9-carboxamide] | – | – | 3.2 | –
O=C(NCc1ccc(F)cc1F)c1cn2c(c(O)c1=O)C(=O)N1[C@@H]3CC[C@@H](C3)O[C@H]1C2 [Compound 3] | 1.9 | 36200 | – | Emax at 24 hr, 15 µM [4]: 5%
O=C(NCc1ccc(F)cc1F)c1cn2c(c(O)c1=O)C(=O)N1[C@H]3CC[C@H](C3)O[C@@H]1C2 [Compound 2] | 1.9 | 2960 | – | Emax at 24 hr, 15 µM [4]: 2.8%
O=C(N[C@@H](c1ccc(F)cc1F)C(F)(F)F)c1cn2c(c(O)c1=O)C(=O)N1C(C2)O[C@H]2CC[C@@H]1C2 (stereo partly drawn) [Compound 36] | 3.5 | 13500 | – | –
O=C(NCc1ccc(F)cc1F)c1cn2c(c(O)c1=O)C(=O)N1C(C2)[N@]2CC[C@H]1C2 (stereo partly drawn) [Compound 6] | – | 53200 | – | –
O=C(NCc1ccc(F)cc1F)c1cn2c(c(O)c1=O)C(=O)N1C(C2)[N@@]2CCC[C@@H]1C2 (stereo partly drawn) [Compound 20] | – | – | 2.4 | –
C[C@@H](NC(=O)c1cn2c(c(O)c1=O)C(=O)N1[C@H]3CC[C@H](C3)O[C@@H]1C2)c1ccc(F)cc1 [Compound 10] | – | – | – | Emax at 24 hr, 15 µM [4]: 0.19%
O=C(NCc1ccc(F)c(F)c1)c1cn2c(c(O)c1=O)C(=O)N1[C@@H]3CC[C@@H](C3)O[C@H]1C2 [Compound 18] | – | – | 4.4 | –
O=C(NCc1cc(F)cc(F)c1)c1cn2c(c(O)c1=O)C(=O)N1[C@@H]3CC[C@@H](C3)O[C@H]1C2 [Compound 24] | – | – | – | EC50 [1]: 3.4 nM; CC50 at 5 days ([2]; MT4 cells, MT-4 cells, 5 days incubation, read-out: CC50): 12600 nM
C[C@@H](NC(=O)c1cn2c(c(O)c1=O)C(=O)N1[C@@H]3CC[C@@H](C3)O[C@H]1C2)c1ccc(F)cc1 [Compound 9] | – | – | – | Emax at 24 hr, 15 µM [4]: 0.07%
O=C(NCc1ccccc1F)c1cn2c(c(O)c1=O)C(=O)N1[C@@H]3CC[C@@H](C3)O[C@H]1C2 [Compound 23] | 1.8 | 11500 | – | –
